Data set [1] deals with ETA-negative MDA-MB-435 human breast carcinoma cells. Kind of data set: In vitro cell binding assay by fluorescence microscopy, MDA-MB-435 cells. It counts as cell-based. As to conditions: 45 min at 4° C. From the text: In vitro cell binding assays.
The subject of data set [2] is ETAR in MCF-7 tumor xenografts. Kind of data set: In vivo FMT/FRI imaging of MCF-7 tumor xenografts. Also noted: species or system mice.
In data set [3] the target is T1, ETA receptor on HT-1080 human fibrosarcoma cells (Homo sapiens, UniProt P25101).
T1 construct: The highest amount of protein is found in human fibrosarcoma cells HT-1080; host or cells: HT-1080
T1 sequence (P25101 21-427): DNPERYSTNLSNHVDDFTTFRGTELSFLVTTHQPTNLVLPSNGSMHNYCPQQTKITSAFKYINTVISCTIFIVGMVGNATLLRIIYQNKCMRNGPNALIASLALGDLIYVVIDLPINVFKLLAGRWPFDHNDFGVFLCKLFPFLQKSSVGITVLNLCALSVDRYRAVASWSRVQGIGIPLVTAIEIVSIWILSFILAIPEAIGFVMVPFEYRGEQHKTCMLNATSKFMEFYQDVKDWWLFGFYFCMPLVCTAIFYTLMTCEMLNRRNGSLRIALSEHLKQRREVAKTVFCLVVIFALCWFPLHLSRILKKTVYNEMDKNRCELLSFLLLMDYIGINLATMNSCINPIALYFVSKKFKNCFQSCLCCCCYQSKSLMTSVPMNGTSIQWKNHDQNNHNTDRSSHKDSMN
Kind of data set: In vitro cell binding assay by fluorescence microscopy, HT-1080 cells. As to conditions: for cellular fluorescence signal (fluorescence microscopy): HT-1080 cells, 45 min at 4° C. It counts as cell-based.
Experimental: Cell lines and reagents. Human breast adenocarcinoma cell line MCF-7 (ATCC-No. HTB-22), MDA-MB-435 human breast carcinoma cells (ATCC-No. HTB-123) and HT-1080 human fibrosarcoma cells (ATCC-No. CCL-121) were cultured in RPMI 1640 (Invitrogen Corporation, San Diego, USA) supplemented with 10% fetal calf serum, penicillin and streptomycin. Cells were grown routinely in a monolayer culture at 37° C. in a 5% CO2 humidified air atmosphere.
(§1) Cell binding assays. Cells (HT-1080 fibrosarcomas, MDA-MB435 ductal carcinomas, MCF-7 adenocarcinomas) were seeded in 4-well plates (Nunc GmbH & Co. KG, Wiesbaden, Germany) and incubated in culture medium (0.5 ml/well) overnight. For binding studies cells were washed twice with PBS and resuspended in 150 μl binding buffer (20 mM HEPES in PBS with Ca^2+/Mg^2+, 0.2% BSA, 0.1% Glucose, pH 7.4). […] After an incubation period of 45 min at 4° C. cells were washed twice with PBS and were resuspended in binding buffer. […] Cells could be directly visualised by fluorescence microscopy (40× objective, Nikon TE 2000-S, Nikon-Düsseldorf, Germany). The microscope was equipped with a mercury vapour lamp (100 W), 620/775 nm and 545/675 nm (excitation/emission) filters (AHF Analysentechnik, Tbingen, Germany), a Nikon DXM1200F camera and ACT1/DXM1200F software (Nikon, Japan).
(§2) In vitro cell binding assays. […] Binding of the labelled antagonist could be directly analysed by fluorescence microscopy.

Data set [4] deals with T2, ETAR in MDA-MB-435 tumor xenografts (Mus musculus, UniProt Q61614).
T2 construct: from tissue; host or cells: MDA-MB-435 tumour xenografts in mice (host-derived cells, e.g. endothelial)
T2 sequence (Q61614 21-427): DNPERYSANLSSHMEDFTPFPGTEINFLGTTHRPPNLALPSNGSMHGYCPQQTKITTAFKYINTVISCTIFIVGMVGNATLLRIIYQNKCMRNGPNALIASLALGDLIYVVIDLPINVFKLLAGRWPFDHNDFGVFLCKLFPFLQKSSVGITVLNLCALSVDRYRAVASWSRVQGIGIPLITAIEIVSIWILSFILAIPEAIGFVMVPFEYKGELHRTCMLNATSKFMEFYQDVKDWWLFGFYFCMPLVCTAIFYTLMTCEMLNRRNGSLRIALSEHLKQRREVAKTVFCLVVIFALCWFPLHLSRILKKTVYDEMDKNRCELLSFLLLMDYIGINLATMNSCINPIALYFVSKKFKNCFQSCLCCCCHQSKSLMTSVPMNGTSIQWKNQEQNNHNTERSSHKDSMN
In words: In vivo FMT/FRI imaging of MDA-MB-435 murine xenograft models. Also noted: species or system mice. An excerpt:
FIG. 7: 3D-FMTexamination of MDA-MB-435 murine xenograft models.

The test system of data set [5] is ETA receptor on MCF-7 human breast adenocarcinoma cells. Kind of data set: In vitro cell binding assay by fluorescence microscopy, MCF-7 cells. As to conditions: for cellular fluorescence signal (fluorescence microscopy): 45 min at 4° C., nmol amounts per well.
Experimental: Human breast cancer cell line MCF-7 (ATCC-No. HTB-22) was cultured in RPMI 1640 (Invitrogen Corporation, San Diego, USA) supplemented with 10% fetal calf serum, penicillin and streptomycin. Cells were grown routinely in a monolayer culture at 37° C. in a 5% CO2 humidified air atmosphere. Antibodies were murine IgGs and specific for the endothelin A receptor.
Cells were seeded in 4-well plates (Nunc, Wiesbaden) and incubated in culture medium (0.5 ml/well) overnight. For binding studies cells were washed twice with PBS and resuspended in 150 μl binding-buffer (20 mM HEPES in PBS with Ca^2+/Mg^2+, 0.2% BSA, 0.1% Glucose, pH 7.4). […] After an incubation period of 45 min at 4° C. cells were washed twice with PBS and were resuspended in binding buffer. For competition binding studies free ETAR antagonist (final amount 50 nmol) or ETAR antibodies (1.3 μg) were added to each well for 45 min at 4° C. Cells could be directly visualized by fluorescence microscopy (40× and 60× objective, Nikon TE 2000-S, Nikon-Düsseldorf). The microscope was equipped with a mercury vapour lamp (100 W), 620/775 nm and 545/675 nm (excitation/emission) filters (AHF Analysentechnik, Tübingen), a Nikon DXM1200F camera and ACT1/DXM1200F software (Nikon, Japan).
Binding of the labelled antagonist could be directly analyzed by fluorescence microscopy.
as §1, §2
In data set [6] the target is endothelin receptors. As to conditions: literature value printed for comparison (lit.; ref. 37); cited from earlier work.
Another data set deals with T3, myocardial ETAR (Mus musculus, UniProt Q61614).
T3 construct: from tissue; host or cells: mouse myocardium, in vivo
T3 sequence (Q61614 21-427): T2 sequence (Q61614 21-427)
In words: In vivo FRI imaging of myocardial ETAR expression. As to conditions: mice, pre-dosing with PD 156707. The protocol:
FIG. 6: In vivo application of the targeted fluorophore for imaging of myocardial ETAR—expression. Mice were injected with the targeted fluorophore with (middle) and without (right) pre-dosing with PD 156707. The left speciment is a saline injected control.

Data set [7] deals with endothelin receptors. In words: Competition binding studies with [125I]ET-1 on mouse ventricular membrane preparations. As to conditions: read-out: dissociation constant KD; Scatchard transformation of saturation data, mouse ventricular membranes.
Experimental: Microsomes were prepared by homogenizing ventricles from DBA mice at 4° C. for 90 seconds in 1 ml of buffer A (10 mM EDTA, 10 mM HEPES, 0.1 mM benzamidine, pH 7.4), using a Polytron PT 3000 (Kinematica, Luceme, Switzerland). Homogenates were centrifuged at 45,000× gmax for 15 min at 4° C. The pellets were resuspended in 1 ml of buffer B (1 mM EDTA, 10 mM HEPES, 0.1 mM benzamidine, pH 7.4) and recentrifuged at 45,000× gmax for 15 min at 4° C. The pellets were resuspended in 1 ml of buffer B and centrifuged at 10,000× gmax for 10 min at 4° C. The supernatants were recentrifuged at 45,000×gmax for 15 min at 4° C. […]
For competition binding studies, the prepared membranes were resuspended in buffer D (10 mM Tris.HCl, 154 mM NaCl, 0.1 mM ascorbic acid, pH 7.4) at 0° C. […] The membrane bound radioactivity was determined in a γ-scintillation counter. Competition binding curves were analyzed by nonlinear regression analysis using the XMGRACE programme (Linux software).
Different concentrations of the prepared compound (1.0 pM-100 μM) were incubated with 40 pM [^125I]ET-1 and a fixed amount of mouse ventricular membrane preparation (10 μg) at 37° C. for 4 h. The membrane bound radioactivity was evaluated using a γ-scintillation counter and standardized on percentage of [^125I]ET-1. […]
Setting [8] is: MDA-MB-435, block (100 nmol PD 156707 10 minutes before), 1 h.
The mark [9] stands for this setting: MDA-MB-435, block (100 nmol PD 156707 10 minutes before), 3 h.
Where [10] appears, read: MDA-MB-435, block (100 nmol PD 156707 10 minutes before), 5 h.
Where [11] appears, read: MDA-MB-435, block (100 nmol PD 156707 10 minutes before), 24 h.
[12] abbreviates: MDA-MB-435, nativ, 24 h, 2 nmol.

“Also recorded” adds a separate entry of the source.

Turning to `CC[N+]1=C(/C=C/C=C/C=C2/N(CCCCCC(=O)NCCOCCOCCOCCOc3cc(CC4=C(c5ccc6c(c5)OCO6)C(=O)OC4(O)c4ccc(OC)cc4)cc(OC)c3OC)c3ccc4c(S(=O)(=O)O)cc(S(=O)(=O)O)cc4c3C2(C)C)C(C)(C)c2c1ccc1c(S(=O)(=O)O)cc(S(=O)(=O)O)cc21` (stereo not drawn) [ETAR-Cy 5.5], the “cellular fluorescence signal (fluorescence microscopy)” value (from here on “cellular fluorescence signal”) in data set [1] was “little to no cellular fluorescence”; in data set [1] (listed as 17) it was “no accumulation of the ligand; also recorded: do not bind the tracer”; in data set [3] (listed as 17), “higher fluorescence signal than human breast cancer cell line MCF-7; also recorded: highest cellular fluorescence”; in data set [5] it was “high amounts of cellular fluorescence”; in data set [5] (listed as 9), “specific visualization of the ETA receptor”; in data set [5] (listed as 17), “allowed for visualisation of the ETA receptor; also recorded: only moderate cellular fluorescence”. In addition, in data set [5] (listed as targeted fluorochrome), the “cellular fluorescence signal” value was “strong fluorescence signal”. Besides, the “mean (FMT-data)” value came to 196.50 in data set [2] (MCF-7, block, 1 h); 66.50 in data set [2] (MCF-7, block, 3 h); 100.67 in data set [2] (MCF-7, block, 5 h); 125.50 in data set [2] (MCF-7, block, 24 h); 148.00 in data set [2] (MCF-7, nativ, 1 h); 79.00 in data set [2] (MCF-7, nativ, 3 h). The “mean (FMT-data)” value was found to be 115.50 in data set [2] (MCF-7, nativ, 5 h); 207.67 in data set [2] (MCF-7, nativ, 24 h); 253.57 in data set [4] (setting [8]); 323.25 in data set [4] (setting [9]); 343.78 in data set [4] (setting [10]); 273.80 in data set [4] (setting [11]). Moreover, the “mean (FMT-data)” value is reported as 356.89 in data set [4] (MDA-MB-435, nativ, 1 h, 2 nmol); 326.33 in data set [4] (MDA-MB-435, nativ, 3 h, 2 nmol); 418.17 in data set [4] (MDA-MB-435, nativ, 5 h, 2 nmol); 444.38 in data set [4] (setting [12]). Also, the “pmol (FMT-data)” value stood at 224.00 pmol in data set [2] (MCF-7, block, 1 h); 274.50 pmol in data set [2] (MCF-7, block, 3 h); 201.67 pmol in data set [2] (MCF-7, block, 5 h); 9.00 pmol in data set [2] (MCF-7, block, 24 h); 599.00 pmol in data set [2] (MCF-7, nativ, 1 h); 339.00 pmol in data set [2] (MCF-7, nativ, 3 h). Besides, the “pmol (FMT-data)” value in data set [2] (MCF-7, nativ, 5 h) amounted to 473.00 pmol; in data set [2] (MCF-7, nativ, 24 h), 33.00 pmol; in data set [4] (setting [8]) it was 22.14 pmol; in data set [4] (setting [9]), 17.25 pmol; in data set [4] (setting [10]), 19.67 pmol; in data set [4] (setting [11]), 34.80 pmol. For the same molecule, the “pmol (FMT-data)” value in data set [4] (MDA-MB-435, nativ, 1 h, 2 nmol) is on record as 40.56 pmol; in data set [4] (MDA-MB-435, nativ, 3 h, 2 nmol), 27.67 pmol; in data set [4] (MDA-MB-435, nativ, 5 h, 2 nmol), 55.50 pmol; in data set [4] (setting [12]) it was 63.57 pmol. The “fluorescence signal of tumor xenografts by FRI and FMT” value in data set [2] (MCF-7 xenografts, 2 nmol i.v.) was “high fluorescence signal yields”; in data set [4] (MDA-MB 435 xenografts, 2 nmol i.v.), “high fluorescence signal yields”.

The IC50 is the concentration needed to halve the response being measured. On to `COc1ccc(C2(O)OC(=O)C(c3ccc4c(c3)OCO4)=C2Cc2cc(OC)c(OC)c(OC)c2)cc1` (stereo not drawn) [PD 156707, 3-benzo[1,3]dioxol-5-yl-5-hydroxy-5-(4-methoxyphenyl)-4-(3,4,5-trimethoxybenzyl)-5H-furan-2-one, reference compound], for which, at endothelin receptors [6], the concentration for half-maximal inhibition (IC50) is 0.3 nM. Also, the “blocking of the binding/signal of conjugate 17” value in data set [3] (HT-1080 cells (FIG. 4B), antibody 1.3 μg or tenfold excess PD 156707) is reported as “Blocking of the signal was possible”. The “tumor fluorescence of ETAR-Cy 5.5 after predosing” value in data set [4] (predosing with unmodified ETAR antagonist) is “significant decrease of tumor fluorescence”. In data set [5] (PD 156707 50 nmol (tenfold) or ETAR antibodies 1.3 μg), the “blocking of the binding/signal of the Cy 5.5 conjugate” value was “could be blocked; also recorded: Blocking of the signal was possible”. Besides, the “cell behaviour at higher concentrations” value in data set [5] (conjugate and unlabelled antagonist up to 100 nmol) is “cells detached from the bottom of the flask”. On myocardial ETAR, the “myocardial signal of the fluorophore after pre-dosing” value was “significantly reduced”.

Regarding Cy 5.5 [reference compound], the “cellular fluorescence signal” value in data set [1], in data set [3] and in data set [5] was “Negligible signals” throughout.

A word on the Kd: it is the free concentration of one partner at which half of the binding sites on the other are occupied at equilibrium, for simple one-to-one binding. For the molecule “[^125I]ET-1: radioiodinated endothelin-1 radioligand (PerkinElmer)”, the Kd on endothelin receptors [7] turned out to be 0.208 ± 0.002 nM.
